Laboratory results as given in patent US20070049564A1 (Wyeth, priority 2005, published 2007).
Converted amounts (≈) assume the structure as drawn. Read-outs that look alike come from different tables or passages of the source.

Tests used:
E. coli GC 2236 = assay: MIC, broth microdilution; conditions: Escherichia coli
E. coli GC 1073 = assay: MIC, broth microdilution; conditions: Escherichia coli
E. faecalis GC 2242 = assay: MIC, broth microdilution; conditions: Enterococcus faecalis
S. aureus GC 4536 = assay: MIC, broth microdilution; conditions: Staphylococcus aureus
Protocol: Antimicrobial susceptibility testing. The in vitro activities of the antibiotics are determined by the broth microdilution method as recommended by the National Committee for Clinical Laboratory Standards (NCCLS) (1). Mueller-Hinton II broth (MHBII)(BBL Cockeysville, Md.) is the medium employed in the testing procedures. Microtiter plates containing serial dilutions of each antimicrobial agent are inoculated with each organism to yield the appropriate density (10^5 CFU/ml) in a 100 μl final volume. The plates are incubated for 18-22 hours at 35° C. in ambient air.
Representative compounds were first incubated in mouse serum for an hour prior to the in vitro testing against a panel of selected gram-positive and gram-negative bacteria strains. All compounds were also pre-incubated in water for an hour prior to testing as control. Representative compounds of Formula I were incubated in human serum prior to MIC determination.

E. coli GC 2271 = assay: MIC, broth microdilution; conditions: Escherichia coli
E. coli GC 4560 = assay: MIC, broth microdilution; conditions: Escherichia coli
E. coli GC 4559 = assay: MIC, broth microdilution; conditions: Escherichia coli
E. coli = assay: Range of MIC for E. coli strains; conditions: Escherichia coli
E. coli GC 6465 = assay: MIC, broth microdilution; conditions: Escherichia coli
E. coli GC 2235 = assay: MIC, broth microdilution; conditions: Escherichia coli
E. faecalis GC 2265 = assay: MIC, broth microdilution; conditions: Enterococcus faecalis
Staph. = assay: Range of MIC for Staph. strains, including MRSA; conditions: Staphylococcus aureus
S. agalactiae GC 4564 = assay: MIC, broth microdilution; conditions: Streptococcus agalactiae
E. coli GC 2203 = assay: MIC, broth microdilution; conditions: Escherichia coli
E. coli GC 2233 = assay: MIC, broth microdilution; conditions: Escherichia coli
S. aureus GC 6469 = assay: MIC, broth microdilution; conditions: Staphylococcus aureus
S. aureus GC 6467 = assay: MIC, broth microdilution; conditions: Staphylococcus aureus
E. faecalis GC 4555 = assay: MIC, broth microdilution; conditions: Enterococcus faecalis
E. coli GC 2270 = assay: MIC, broth microdilution; conditions: Escherichia coli
P. aeruginosa GC 2214 = assay: MIC, broth microdilution; conditions: Pseudomonas aeruginosa

Structure (SMILES): CC(C)COC(=O)N(CC(=O)Nc1cc(N(C)C)c2c(c1O)C(=O)C1=C(O)[C@]3(O)C(=O)C(C(N)=O)=C(O)[C@@H](N(C)C)[C@@H]3C[C@@H]1C2)C(C)(C)C [Example 59, isobutyl 2-{[(5aR,6aS,7S,10aS)-9-(aminocarbonyl)-4,7-bis(dimethylamino)-1,8,10a,11-tetrahydroxy-10,12-dioxo-5,5a,6,6a,7,10,10a,12-octahydrotetracen-2-yl]amino}-2-oxoethyl(tert-butyl)carbamate]
- MIC (E. coli GC 2236; GC2236, read-out: MINIMAL INHIBITORY CONCENTRATION MIC, Human Serum): > 64 µg/mL
- MIC (E. coli GC 2236; GC2236, read-out: MINIMAL INHIBITORY CONCENTRATION MIC, Mouse Serum): > 64 µg/mL
- MIC (E. coli GC 2236; GC2236, read-out: MINIMAL INHIBITORY CONCENTRATION MIC, Water): > 64 µg/mL
- MIC (E. coli GC 1073; GC1073, read-out: MINIMAL INHIBITORY CONCENTRATION MIC, Human Serum): > 64 µg/mL
- MIC (E. coli GC 1073; GC1073, read-out: MINIMAL INHIBITORY CONCENTRATION MIC, Mouse Serum): > 64 µg/mL
- MIC (E. coli GC 1073; GC1073, read-out: MINIMAL INHIBITORY CONCENTRATION MIC, Water): > 64 µg/mL
- MIC (E. faecalis GC 2242; GC2242, read-out: MINIMAL INHIBITORY CONCENTRATION MIC, Human Serum): 4 µg/mL (≈ 5.83 µM)
- MIC (E. faecalis GC 2242; GC2242, read-out: MINIMAL INHIBITORY CONCENTRATION MIC, Mouse Serum): 2 µg/mL (≈ 2.92 µM)
- MIC (E. faecalis GC 2242; GC2242, read-out: MINIMAL INHIBITORY CONCENTRATION MIC, Water): 4 µg/mL (≈ 5.83 µM)
- MIC (S. aureus GC 4536; GC4536, read-out: MINIMAL INHIBITORY CONCENTRATION MIC, Human Serum): 4 µg/mL (≈ 5.83 µM)
- MIC (S. aureus GC 4536; GC4536, read-out: MINIMAL INHIBITORY CONCENTRATION MIC, Mouse Serum): 4 µg/mL (≈ 5.83 µM)
- MIC (S. aureus GC 4536; GC4536, read-out: MINIMAL INHIBITORY CONCENTRATION MIC, Water): 4 µg/mL (≈ 5.83 µM)
- MIC (E. coli GC 2271; GC2271, read-out: MINIMAL INHIBITORY CONCENTRATION MIC, Human Serum): > 64 µg/mL
- MIC (E. coli GC 2271; GC2271, read-out: MINIMAL INHIBITORY CONCENTRATION MIC, Mouse Serum): > 64 µg/mL
- MIC (E. coli GC 2271; GC2271, read-out: MINIMAL INHIBITORY CONCENTRATION MIC, Water): > 64 µg/mL
- MIC (E. coli GC 4560; GC4560, read-out: MINIMAL INHIBITORY CONCENTRATION MIC, Human Serum): 4 µg/mL (≈ 5.83 µM)
- MIC (E. coli GC 4560; GC4560, read-out: MINIMAL INHIBITORY CONCENTRATION MIC, Mouse Serum): 4 µg/mL (≈ 5.83 µM)
- MIC (E. coli GC 4560; GC4560, read-out: MINIMAL INHIBITORY CONCENTRATION MIC, Water): 4 µg/mL (≈ 5.83 µM)
- MIC (E. coli GC 4559; GC4559, read-out: MINIMAL INHIBITORY CONCENTRATION MIC, Human Serum): > 64 µg/mL
- MIC (E. coli GC 4559; GC4559, read-out: MINIMAL INHIBITORY CONCENTRATION MIC, Mouse Serum): 64 µg/mL (≈ 93.3 µM)
- MIC (E. coli GC 4559; GC4559, read-out: MINIMAL INHIBITORY CONCENTRATION MIC, Water): > 64 µg/mL
- MIC (E. coli; read-out: Minimum inhibitory concentration (MIC), E. coli (Human Serum)): > 64 µg/mL
- MIC (E. coli; read-out: Minimum inhibitory concentration (MIC), E. coli (water)): > 64 µg/mL
- MIC (E. coli; read-out: Range of MIC, E. coli (Water)): > 64 µg/mL
- MIC (E. coli GC 6465; GC6465, read-out: MINIMAL INHIBITORY CONCENTRATION MIC, Human Serum): > 64 µg/mL
- MIC (E. coli GC 6465; GC6465, read-out: MINIMAL INHIBITORY CONCENTRATION MIC, Mouse Serum): 32 µg/mL (≈ 46.7 µM)
- MIC (E. coli GC 6465; GC6465, read-out: MINIMAL INHIBITORY CONCENTRATION MIC, Water): > 64 µg/mL
- MIC (E. coli GC 2235; GC2235, read-out: MINIMAL INHIBITORY CONCENTRATION MIC, Human Serum): > 64 µg/mL
- MIC (E. coli GC 2235; GC2235, read-out: MINIMAL INHIBITORY CONCENTRATION MIC, Mouse Serum): > 64 µg/mL
- MIC (E. coli GC 2235; GC2235, read-out: MINIMAL INHIBITORY CONCENTRATION MIC, Water): > 64 µg/mL
- MIC (E. faecalis GC 2265; GC2265, read-out: MINIMAL INHIBITORY CONCENTRATION MIC, Human Serum): 4 µg/mL (≈ 5.83 µM)
- MIC (E. faecalis GC 2265; GC2265, read-out: MINIMAL INHIBITORY CONCENTRATION MIC, Mouse Serum): 4 µg/mL (≈ 5.83 µM)
- MIC (E. faecalis GC 2265; GC2265, read-out: MINIMAL INHIBITORY CONCENTRATION MIC, Water): 4 µg/mL (≈ 5.83 µM)
- MIC (Staph.; MRSA, read-out: Range of MIC, Staph (Mouse Serum)): 4 µg/mL (≈ 5.83 µM)
- MIC (Staph.; MRSA, read-out: Range of MIC, Staph (Water)): 4 to 8 µg/mL (≈ 5.83 to 11.7 µM)
- MIC (Staph.; read-out: Minimum inhibitory concentration (MIC), Staph (Human Serum)): 2 to 4 µg/mL (≈ 2.92 to 5.83 µM)
- MIC (Staph.; read-out: Minimum inhibitory concentration (MIC), Staph (Water)): 4 to 8 µg/mL (≈ 5.83 to 11.7 µM)
- MIC (S. agalactiae GC 4564; GC4564, read-out: MINIMAL INHIBITORY CONCENTRATION MIC, Human Serum): 8 µg/mL (≈ 11.7 µM)
- MIC (S. agalactiae GC 4564; GC4564, read-out: MINIMAL INHIBITORY CONCENTRATION MIC, Mouse Serum): 8 µg/mL (≈ 11.7 µM)
- MIC (S. agalactiae GC 4564; GC4564, read-out: MINIMAL INHIBITORY CONCENTRATION MIC, Water): 8 µg/mL (≈ 11.7 µM)
- MIC (E. coli GC 2203; GC2203, read-out: MINIMAL INHIBITORY CONCENTRATION MIC, Human Serum): > 64 µg/mL
- MIC (E. coli GC 2203; GC2203, read-out: MINIMAL INHIBITORY CONCENTRATION MIC, Mouse Serum): > 64 µg/mL
- MIC (E. coli GC 2203; GC2203, read-out: MINIMAL INHIBITORY CONCENTRATION MIC, Water): > 64 µg/mL
- MIC (E. coli GC 2233; GC2233, read-out: MINIMAL INHIBITORY CONCENTRATION MIC, Human Serum): > 64 µg/mL
- MIC (E. coli GC 2233; GC2233, read-out: MINIMAL INHIBITORY CONCENTRATION MIC, Mouse Serum): > 64 µg/mL
- MIC (E. coli GC 2233; GC2233, read-out: MINIMAL INHIBITORY CONCENTRATION MIC, Water): > 64 µg/mL
- MIC (S. aureus GC 6469; GC6469, read-out: MINIMAL INHIBITORY CONCENTRATION MIC, Human Serum): 4 µg/mL (≈ 5.83 µM)
- MIC (S. aureus GC 6469; GC6469, read-out: MINIMAL INHIBITORY CONCENTRATION MIC, Mouse Serum): 4 µg/mL (≈ 5.83 µM)
- MIC (S. aureus GC 6469; GC6469, read-out: MINIMAL INHIBITORY CONCENTRATION MIC, Water): 4 µg/mL (≈ 5.83 µM)
- MIC (S. aureus GC 6467; GC6467, read-out: MINIMAL INHIBITORY CONCENTRATION MIC, Human Serum): 4 µg/mL (≈ 5.83 µM)
- MIC (S. aureus GC 6467; GC6467, read-out: MINIMAL INHIBITORY CONCENTRATION MIC, Mouse Serum): 4 µg/mL (≈ 5.83 µM)
- MIC (S. aureus GC 6467; GC6467, read-out: MINIMAL INHIBITORY CONCENTRATION MIC, Water): 4 µg/mL (≈ 5.83 µM)
- MIC (E. faecalis GC 4555; GC4555, read-out: MINIMAL INHIBITORY CONCENTRATION MIC, Human Serum): 4 µg/mL (≈ 5.83 µM)
- MIC (E. faecalis GC 4555; GC4555, read-out: MINIMAL INHIBITORY CONCENTRATION MIC, Mouse Serum): 4 µg/mL (≈ 5.83 µM)
- MIC (E. faecalis GC 4555; GC4555, read-out: MINIMAL INHIBITORY CONCENTRATION MIC, Water): 4 µg/mL (≈ 5.83 µM)
- MIC (E. coli GC 2270; GC2270, read-out: MINIMAL INHIBITORY CONCENTRATION MIC, Human Serum): > 64 µg/mL
- MIC (E. coli GC 2270; GC2270, read-out: MINIMAL INHIBITORY CONCENTRATION MIC, Mouse Serum): > 64 µg/mL
- MIC (E. coli GC 2270; GC2270, read-out: MINIMAL INHIBITORY CONCENTRATION MIC, Water): > 64 µg/mL
- MIC (P. aeruginosa GC 2214; GC2214, read-out: MINIMAL INHIBITORY CONCENTRATION MIC, Human Serum): > 64 µg/mL
- MIC (P. aeruginosa GC 2214; GC2214, read-out: MINIMAL INHIBITORY CONCENTRATION MIC, Mouse Serum): > 64 µg/mL
- MIC (P. aeruginosa GC 2214; GC2214, read-out: MINIMAL INHIBITORY CONCENTRATION MIC, Water): > 64 µg/mL
